Measured values published in patent US11000033B2, “Ketone or oxime compound, and herbicide” (NISSAN CHEMICAL CORPORATION, priority 2014, dated 2021).

What was measured:
Assay type in all cases: in vivo
[1] = system: beet; test: Test Example 5: effect on crop by foliage application, plastic box (symbol f); conditions: 320 g/ha, 3 weeks after application
In short: (§1)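 Plants were raised from seed in a greenhouse (25° C. to 30° C.) after sowing in a plastic box of sterilized diluvial soil.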

[2] = system: Stellaria media; test: Test Example 5: herbicidal effect by foliage application, plastic box (symbol P); conditions: 320 g/ha, 3 weeks after application
In short: (§2)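 Herbicide, formulated as an emulsion and diluted in water, is sprayed onto the aerial parts of 14-day seedlings. These were grown at 25° C. to 30° C. in sterilized diluvial soil; effects are graded after 3 weeks.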

[3] = system: Cyperus difformis; test: Test Example 3: herbicidal effect by foliage application, Wagner pot (symbol E); conditions: application herbicide amount 320 g/ha
In short: (§3)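 The compound, formulated as an emulsion and diluted with water to a predetermined rate, is applied uniformly to leaves of two-week-old seedlings growing in submerged alluvial soil at 25–30 °C. Rice is included. Each plant is assessed 3 weeks later using defined criteria.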

[4] = system: Echinochloa oryzacola Vasing.; test: Test Example 1: herbicidal activity, application before weed generation in submerged conditions (symbol A); conditions: application herbicide amount 320 g/ha
In short: (§4)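 Mixed weed seeds sown in alluvial soil under 4 cm of water, with rice seedlings at the 2.5-leaf stage added. Same-day treatment: emulsion diluted to a set herbicide amount onto the water. Three weeks at 25–30 °C, then graded on a six-step scale.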

[5] = system: Scirpus juncoides; test: Test Example 1: herbicidal activity, application before weed generation in submerged conditions (symbol B); conditions: application herbicide amount 320 g/ha
In short: as §4

[6] = system: soybean; test: Test Example 5: effect on crop by foliage application, plastic box (symbol d); conditions: 320 g/ha, 3 weeks after application
In short: as §1

[7] = system: rice plant; test: Test Example 5: effect on crop by foliage application, plastic box (symbol b); conditions: 320 g/ha, 3 weeks after application
In short: as §1

[8] = system: Avena fatua; test: Test Example 5: herbicidal effect by foliage application, plastic box (symbol I); conditions: 320 g/ha, 3 weeks after application
In short: as §2

[9] = system: Digitaria ciliaris; test: Test Example 5: herbicidal effect by foliage application, plastic box (symbol F); conditions: 320 g/ha, 3 weeks after application
In short: as §2

[10] = system: rapeseed; test: Test Example 5: effect on crop by foliage application, plastic box (symbol g); conditions: 320 g/ha, 3 weeks after application
In short: as §1

[11] = system: Setaria viridis; test: Test Example 5: herbicidal effect by foliage application, plastic box (symbol G); conditions: 320 g/ha, 3 weeks after application
In short: as §2

[12] = system: Monochoria vaginalis; test: Test Example 2: herbicidal activity, application during weed generation in submerged conditions (symbol C); conditions: Table 23; application herbicide amount 320 g/ha; grade 0-5 by criteria of Test Example 1
In short: (§5)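 Treatment timing was the one- to two-leaf stage, with diluted emulsifiable compound dropped onto the paddy water (depth 4 cm) over alluvial soil. All three species grew from a mixed sowing in a 25° C. to 30° C. greenhouse. Injury was judged by eye 3 weeks on.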

[13] = system: Amaranthus retroflexus; test: Test Example 5: herbicidal effect by foliage application, plastic box (symbol N); conditions: 320 g/ha, 3 weeks after application
In short: as §2

[14] = system: Echinochloa oryzacola Vasing.; test: Test Example 2: herbicidal activity, application during weed generation in submerged conditions (symbol A); conditions: Table 23; application herbicide amount 320 g/ha; grade 0-5 by criteria of Test Example 1
In short: as §5

[15] = system: Galium spurium; test: Test Example 5: herbicidal effect by foliage application, plastic box (symbol Q); conditions: 320 g/ha, 3 weeks after application
In short: as §2

[16] = system: Echinochloa crus-galli var. crus-galli; test: Test Example 5: herbicidal effect by foliage application, plastic box (symbol H); conditions: 320 g/ha, 3 weeks after application
In short: as §2

[17] = system: Monochoria vaginalis; test: Test Example 1: herbicidal activity, application before weed generation in submerged conditions (symbol C); conditions: application herbicide amount 320 g/ha
In short: as §4

[18] = system: directly sowed rice plant; test: Test Example 3: effect on crop by foliage application, Wagner pot (symbol b); conditions: application herbicide amount 320 g/ha
In short: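 Greenhouse culture at 25–30 °C of seeded rice, Cyperus difformis, Leptochloa chinensis and Echinochloa crus-galli var. crus-galli, in alluvial soil held under 0.1–0.5 cm of water in a Wagner pot.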

[19] = system: wheat; test: Test Example 5: effect on crop by foliage application, plastic box (symbol e); conditions: 320 g/ha, 3 weeks after application
In short: as §1

[20] = system: Echinochloa crus-galli var. crus-galli; test: Test Example 3: herbicidal effect by foliage application, Wagner pot (symbol H); conditions: application herbicide amount 320 g/ha
In short: as §3

[21] = system: Apera spica-venti; test: Test Example 5: herbicidal effect by foliage application, plastic box (symbol L); conditions: 320 g/ha, 3 weeks after application
In short: as §2

[22] = system: Leptochloa chinensis; test: Test Example 3: herbicidal effect by foliage application, Wagner pot (symbol D); conditions: application herbicide amount 320 g/ha
In short: as §3

[23] = system: Lolium multiflorum Lam.; test: Test Example 5: herbicidal effect by foliage application, plastic box (symbol K); conditions: 320 g/ha, 3 weeks after application
In short: as §2

[24] = system: Alopecurus myosuroides; test: Test Example 5: herbicidal effect by foliage application, plastic box (symbol J); conditions: 320 g/ha, 3 weeks after application
In short: as §2

[25] = system: corn; test: Test Example 5: effect on crop by foliage application, plastic box (symbol c); conditions: 320 g/ha, 3 weeks after application
In short: as §1

[26] = system: Abutilon theophrasti; test: Test Example 5: herbicidal effect by foliage application, plastic box (symbol M); conditions: 320 g/ha, 3 weeks after application
In short: as §2

[27] = system: Scirpus juncoides; test: Test Example 2: herbicidal activity, application during weed generation in submerged conditions (symbol B); conditions: Table 23; application herbicide amount 320 g/ha; grade 0-5 by criteria of Test Example 1
In short: as §5

[28] = system: Chenopodium album; test: Test Example 5: herbicidal effect by foliage application, plastic box (symbol O); conditions: 320 g/ha, 3 weeks after application
In short: as §2

[29] = system: transplanted rice plant; test: Test Example 1: effect on crop, application before weed generation in submerged conditions (symbol a); conditions: application herbicide amount 320 g/ha
In short: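 Rice at 2.5 leaf stage transplanted into submerged soil (4 cm depth) sown with three weed species; herbicide applied before weed emergence.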

[30] = system: Veronica persica; test: Test Example 5: herbicidal effect by foliage application, plastic box (symbol R); conditions: 320 g/ha, 3 weeks after application
In short: as §2

SMILES	f: beet, effect on crop grade [1]	P: Stellaria media, herbicidal effect grade [2]	d: soybean, effect on crop grade [6]	b: directly sowed rice plant, effect on crop grade [7]	I: Avena fatua, herbicidal effect grade [8]	F: Digitaria ciliaris, herbicidal effect grade [9]	g: rapeseed, effect on crop grade [10]	G: Setaria viridis, herbicidal effect grade [11]	Herbicidal effect grade, C: Monochoria vaginalis [12]	N: Amaranthus retroflexus, herbicidal effect grade [13]	Herbicidal effect grade, A: Echinochloa oryzacola Vasing. [14]	Q: Galium spurium, herbicidal effect grade [15]	H: Echinochloa crus-galli var. crus-galli, herbicidal effect grade [16]	e: wheat, effect on crop grade [19]	L: Apera spica-venti, herbicidal effect grade [21]	K: Lolium multiflorum Lam., herbicidal effect grade [23]	J: Alopecurus myosuroides, herbicidal effect grade [24]	c: corn, effect on crop grade [25]	M: Abutilon theophrasti, herbicidal effect grade [26]	Herbicidal effect grade, B: Scirpus juncoides [27]	other results
CON=C(C)CC1CC(O)=C(c2c(C)cc(-c3ccc(SC)cc3)cc2C)C1=O (mixture of isomers) [6-030]	0 (Herbicidal ratio of 5% or lower (almost no effect))	0 (Herbicidal ratio of 5% or lower (almost no effect))	0 (Herbicidal ratio of 5% or lower (almost no effect))	1 (Herbicidal ratio of 5% or higher and lower than 20%)	0 (Herbicidal ratio of 5% or lower (almost no effect))	4 (Herbicidal ratio of 70% or higher and lower than 90%)	3 (Herbicidal ratio of 40% or higher and lower than 70%)	4 (Herbicidal ratio of 70% or higher and lower than 90%)	0 (Herbicidal ratio of 5% or lower (almost no effect))	0 (Herbicidal ratio of 5% or lower (almost no effect))	2 (Herbicidal ratio of 20% or higher and lower than 40%)	0 (Herbicidal ratio of 5% or lower (almost no effect))	1 (Herbicidal ratio of 5% or higher and lower than 20%)	0 (Herbicidal ratio of 5% or lower (almost no effect))	0 (Herbicidal ratio of 5% or lower (almost no effect))	1 (Herbicidal ratio of 5% or higher and lower than 20%)	1 (Herbicidal ratio of 5% or higher and lower than 20%)	0 (Herbicidal ratio of 5% or lower (almost no effect))	0 (Herbicidal ratio of 5% or lower (almost no effect))	0 (Herbicidal ratio of 5% or lower (almost no effect))	herbicidal effect on E, grade 0-5 [3]: 0 (Herbicidal ratio of 5% or lower (almost no effect)); Herbicidal effect grade, A: Echinochloa oryzacola Vasing. [4]: 3 (Herbicidal ratio of 40% or higher and lower than 70%); Herbicidal effect grade, B: Scirpus juncoides [5]: 0 (Herbicidal ratio of 5% or lower (almost no effect)); Herbicidal effect grade, C: Monochoria vaginalis [17]: 0 (Herbicidal ratio of 5% or lower (almost no effect)); effect on crop b (directly sowed rice plant), grade 0-5 [18]: 2 (Herbicidal ratio of 20% or higher and lower than 40%); herbicidal effect on H (Echinochloa crus-galli var. crus-galli), grade 0-5 [20]: 4 (Herbicidal ratio of 70% or higher and lower than 90%); herbicidal effect on D (Leptochloa chinensis), grade 0-5 [22]: 5 (Herbicidal ratio of 90% or more (almost completely withered)); O: Chenopodium album, herbicidal effect grade [28]: 0 (Herbicidal ratio of 5% or lower (almost no effect)); Effect grade on crop, a: transplanted rice plant [29]: 2 (Herbicidal ratio of 20% or higher and lower than 40%); R: Veronica persica, herbicidal effect grade [30]: 0 (Herbicidal ratio of 5% or lower (almost no effect))
COCCON=C(CC1CC(O)=C(c2c(C)cc(Br)cc2C)C1=O)C(C)C (stereo not drawn) [9-018]	0 (Herbicidal ratio of 5% or lower (almost no effect))	1 (Herbicidal ratio of 5% or higher and lower than 20%)	0 (Herbicidal ratio of 5% or lower (almost no effect))	3 (Herbicidal ratio of 40% or higher and lower than 70%)	3 (Herbicidal ratio of 40% or higher and lower than 70%)	0 (Herbicidal ratio of 5% or lower (almost no effect))	0 (Herbicidal ratio of 5% or lower (almost no effect))	3 (Herbicidal ratio of 40% or higher and lower than 70%)	0 (Herbicidal ratio of 5% or lower (almost no effect))	0 (Herbicidal ratio of 5% or lower (almost no effect))	1 (Herbicidal ratio of 5% or higher and lower than 20%)	0 (Herbicidal ratio of 5% or lower (almost no effect))	3 (Herbicidal ratio of 40% or higher and lower than 70%)	0 (Herbicidal ratio of 5% or lower (almost no effect))	0 (Herbicidal ratio of 5% or lower (almost no effect))	1 (Herbicidal ratio of 5% or higher and lower than 20%)	1 (Herbicidal ratio of 5% or higher and lower than 20%)	3 (Herbicidal ratio of 40% or higher and lower than 70%)	0 (Herbicidal ratio of 5% or lower (almost no effect))	0 (Herbicidal ratio of 5% or lower (almost no effect))	E herbicidal effect grade ([3]; Table 24): 0 (Herbicidal ratio of 5% or lower (almost no effect)); A (Echinochloa oryzacola Vasing.) herbicidal effect grade [4]: 1 (Herbicidal ratio of 5% or higher and lower than 20%); B (Scirpus juncoides) herbicidal effect grade [5]: 0 (Herbicidal ratio of 5% or lower (almost no effect)); C (Monochoria vaginalis) herbicidal effect grade [17]: 0 (Herbicidal ratio of 5% or lower (almost no effect)); b (directly sowed rice plant) effect on crop grade ([18]; Table 24): 4 (Herbicidal ratio of 70% or higher and lower than 90%); H (Echinochloa crus-galli var. crus-galli) herbicidal effect grade ([20]; Table 24): 2 (Herbicidal ratio of 20% or higher and lower than 40%); D (Leptochloa chinensis) herbicidal effect grade ([22]; Table 24): 0 (Herbicidal ratio of 5% or lower (almost no effect)); O: Chenopodium album, herbicidal effect grade [28]: 0 (Herbicidal ratio of 5% or lower (almost no effect)); a (transplanted rice plant) effect on crop grade [29]: 2 (Herbicidal ratio of 20% or higher and lower than 40%); R: Veronica persica, herbicidal effect grade [30]: 0 (Herbicidal ratio of 5% or lower (almost no effect))
